In experiment [1] the test system is algae. The experiment is described as follows: Lipid enhancement with glycerol (algae re-suspended in salts solution). Format: cell-based. As to conditions: 0.5, 1 and 5 g/L glycerol (all systems), within 24 h; pH 5; then decreased slightly. Here is the method: The specific procedure was: • i. […] Rotate 20 min at 40% output (Glas-Col) • vi. Centrifuge at 3620 g for 5 min • vii.
Algae were first cultured and then collected by centrifuge.
The thin layer chromatography analysis was performed the same as in Experiment 2.

Experiment [2] concerns algae. As to conditions: 0.5 g/L sodium acetate, within 6 hours, increased from 40%; pH 5; then decreased.
Procedure: For the dry weight analysis, algal cells were collected by centrifuging at 300 g for 10 min. After washing with deionized water once, the precipitant of the sample was transferred to pre-weighed aluminum plates and dried to a constant weight in an oven at 70 degrees C.
For the lipid analysis, the algal cells were collected at 300 g for 10 min. Then the lipid content of the precipitant from the sample was analyzed with the same lipid extraction procedure, which is modified from the Folch method. The specific procedure was: • i. Add 8 mL of chloroform and methanol mixture (2:1, v/v) to the sample • ii. Add 0.1 mL of HCl (5 M) to the sample • iii. Gradually add deionized water to the sample until a second phase appears • iv. Vortex for 3 min at full power (Vortex-Genie 2) • v. Rotate 20 min at 40% output (Glas-Col) • vi. Centrifuge at 3620 g for 5 min • vii. Collect the lower chloroform phase into a pre-weighed drying vessel • viii. Add 5 mL of chloroform and methanol mixture (2:1, v/v) to the sample and repeat steps iv, v, vi and vii • ix. Air dry the vessel to a constant weight and measure the weight.
Algae were first cultured and then collected by centrifuge. After washing with deionized water once, algae were re-suspended into salts solution (Table 1). […] During the batch studies, the pH of all systems was maintained at 5 with 0.05 mol/L NaOH and 0.05 mol/L HCl. […]

Molecules are shown by their SMILES. Where two headings read alike, the source gives them in different places.

As to `OCC(O)CO` [glycerol], the lipid content entry with algae [1] was “about 40 % of the dry weight”.

As for `CC(=O)[O-].[Na+]` [sodium acetate], in the experiment with algae [2], the lipid content was 65 % of the dry weight.

Source of the values: patent US10584361B2, “Algae having intracellular lipid particles and high lipid content” (THE UNIVERSITY OF AKRON, priority 2012, dated 2020).
